Experiments:
[1] = tested on: spontaneously breathing rats; experiment: Minute ventilation (MV) and cardiovascular parameters in naive rats; assay type: in vivo, rat; set-up: unit not given here
Description: (§1) All surgical procedures were performed under anesthesia induced by 2% isoflurane in compressed medical grade air. With rats in supine position, the right femoral vein was catheterized using polyethylene tubing (PE-50). This catheter was used for fluid and drug administration. Simultaneously, the right femoral artery was also catheterized for monitoring blood pressure and heart rate. In order to measure the respiratory parameters in spontaneously breathing rats, trachea was intubated using 13 gauge tracheal tube (2.5 mm ID, Instech Solomon, Pa.).
After establishing a stable base-line at 1.5% isoflurane, compounds (typically at a dose of 1 mpk) were administered IV, and ventilatory parameters were generated from spontaneously breathing rats, along with cardiovascular output (mean arterial pressure (MAP) and heart rate). Maximum peak minute ventilatory (MV) responses (MPR), along with changes in minute ventilation versus baseline (AMV) were obtained as shown in the tables below.

[2] = tested on: hypoxic ventilatory response; experiment: Hypoxic ventilatory response (HVR) in the rat, plethysmography; assay type: in vivo; conditions: 0.03 mg/kg/min infusion 50 min; 12% O2 for 20 min; vs vehicle
Description: Rats with a pre-cannulated jugular vein (for administering drugs) were acclimated to plethysmography chambers for a minimum of 60 minutes, or until animals were no longer restless. Each animal was dosed with compound (XXXVI), labeled as cmpd (A), at 0.03 mg/kg/min via infusion into the jugular vein catheter for a period of 50 minutes. After a period of 20 minutes, an isocapnic hypoxic mixture (12% O2 balanced N2) was administered into all chambers using a gas mixer (CWE inc. GSM-3 gas mixer) for 20 minutes. After this time, the gas mixer was turned off, resulting in normal room air pumped into the chambers. Ten minutes later, the infusion pumps were turned off, and all animals were given a 20 minute recovery period, followed by a post-study analysis of rat health and behavior. […] Results are illustrated in FIG. 3.

[3] = tested on: spontaneously breathing rats; experiment: Dose-dependent effect on minute ventilation (MV) in naive rats; assay type: in vivo, rat
Description: as §1, with “pressure.” for “pressure and heart rate.”
After establishing a stable base-line at 1.5% isoflurane, cumulative dose-dependent (0.01, 0.03, 0.1, 0.3, 1, 3, 10 mg/kg) ventilatory responses to compounds (XXXVI) and (L), labeled as cmpd (A) and cmpd (B) respectively, were generated from spontaneously breathing rats. Maximum peak minute ventilatory (MV) values at each dose of corresponding drug were calculated and used for generating ED50 values.

rat KCNK3/TASK-1 = target: T1, rat KCNK3/TASK-1 (Rattus norvegicus, UniProt O54912); experiment: Thallium flux through rat TASK-1 (KCNK3-CHO cells); assay type: cell-based; conditions: Tl+ flux; 3 nM to 30 μM; read-out: rTASK-1 IC50
T1 construct: expressed in transfected cells; host or cells: CHO cells (tetracycline-inducible)
T1 sequence (O54912 whole entry): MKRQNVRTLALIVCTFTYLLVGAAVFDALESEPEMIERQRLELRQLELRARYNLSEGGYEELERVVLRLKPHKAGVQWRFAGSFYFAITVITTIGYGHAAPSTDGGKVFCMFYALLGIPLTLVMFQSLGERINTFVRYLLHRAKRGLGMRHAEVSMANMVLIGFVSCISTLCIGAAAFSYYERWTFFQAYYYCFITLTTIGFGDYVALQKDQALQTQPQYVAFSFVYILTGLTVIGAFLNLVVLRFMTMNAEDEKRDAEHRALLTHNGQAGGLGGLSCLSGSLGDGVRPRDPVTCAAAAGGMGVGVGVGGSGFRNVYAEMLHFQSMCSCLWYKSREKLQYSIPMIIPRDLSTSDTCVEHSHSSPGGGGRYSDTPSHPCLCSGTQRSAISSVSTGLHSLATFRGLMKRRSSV
Description: (§2) CHO cells expressing recombinant tetracycline-inducible rat KCNK3/TASK-1 (KCNK3-CHO cells) were plated in poly-D-lysine coated 384-well plates at a density of 6,000 cells/well (50 μl/well of 120,000 cells/mL) and allowed to incubate for 72 hrs in the presence of 5% CO2 and 1 μg/mL tetracycline at 30° C. HEK cells expressing recombinant tetracycline-inducible human KCNK9/TASK-3 (KCNK9-HEK cells) were plated at a density of 15,000 cells per well (50 μl/well, 300,000 cells/mL) and incubated overnight at 37° C. and 5% CO2 in the presence of 1 μg/mL tetracycline.
(§3) Drug plates were generated from 10 mM 100% DMSO mother plates. Compounds were transferred to 384-well drug plates and titrated with sequential 1:3 dilutions in 100% DMSO for a total of 9 dilutions. A dilution plate is made by taking 2.4 μl from the mother plate and adding to […] of assay buffer for a 12% DMSO dilution plate. From this dilution plate, a final daughter plate is generated by taking 1 μA of the dilution plate and adding to 40 μA of assay buffer for a final DMSO concentration of 0.3%. Each compound was evaluated in duplicate and the concentration range evaluated was 3 nM to 30 μM.
(§4) When thallium was added to extracellular solution with a stimulus to open channels, Tl^+ flowed down its concentration gradient into the cells and channel activity was detected with an indicator dye, FluxOR™, that increased in cytosolic fluorescence. The FluxOR™ indicator dye was loaded into cells as a membrane permeable acetoxymethyl ester. On the day of each assay, FluxOR™ assay buffer was made fresh from Hank's Balanced Saline Solution (HBSS) buffered with 20 mM HEPES and pH adjusted to 7.4 with NaOH. Dye loading solution was prepared per manufacturer's instructions, and 25 μl of dye solution applied to each well with a multidropper after plating medium was removed manually from cells. Dye was allowed to load for 90 minutes at room temperature in the dark.
(§5) After the 90 min dye loading incubation and subsequent manual dye removal, 24 μl of the drug daughter plate was transfer to cell plates by a cybi-well system and then incubated at room temperature for 20 minutes to allow for equilibration within wells. Stimulation buffer was prepared from 5× chloride-free buffer, thallium, and potassium sulfate containing 5 times the desired final assay concentration of 10 mM K^+ 2.8 mM Tl^+. Cell plates were then transferred to an FDSS 6000 kinetic imaging plate reader (Hamamatsu). Fluorescence at 525 nm (excitation 488 nm) was measured for 10 seconds at 1 Hz to establish baseline for the entire plate. After baseline was established, 6 μl/well of stimulation buffer was added and fluorescence signal recorded for another 140 seconds.
(§6) From the fluorescence signals in the absence and presence of Galleon compounds, Inhibitory concentration curves were plotted and IC50 values were estimated using a curve fitting algorithm.

human KCNK9/TASK-3 = target: T2, human KCNK9/TASK-3 (Homo sapiens, UniProt Q9NPC2); experiment: Thallium flux through human TASK-3 (KCNK9-HEK cells); assay type: cell-based; conditions: Tl+ flux; 3 nM to 30 μM; read-out: hTASK-3 IC50
T2 construct: expressed in transfected cells; host or cells: HEK cells (tetracycline-inducible)
T2 sequence (Q9NPC2 whole entry): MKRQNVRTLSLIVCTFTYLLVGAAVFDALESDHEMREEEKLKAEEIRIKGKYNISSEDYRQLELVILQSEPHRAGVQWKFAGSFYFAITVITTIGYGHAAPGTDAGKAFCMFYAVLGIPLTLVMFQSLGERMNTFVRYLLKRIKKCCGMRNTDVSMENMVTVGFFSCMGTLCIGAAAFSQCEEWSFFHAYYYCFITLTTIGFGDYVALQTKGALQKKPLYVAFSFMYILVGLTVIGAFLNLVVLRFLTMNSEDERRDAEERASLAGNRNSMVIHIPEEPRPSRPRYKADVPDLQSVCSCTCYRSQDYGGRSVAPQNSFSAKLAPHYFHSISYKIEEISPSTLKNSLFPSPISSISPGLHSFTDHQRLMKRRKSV
Description: as §2, §3, §4, §5, §6

[4] = 1 mpk IV, 15% DMA 85% D5W, pH 5-6
[5] = Table 8, 1 mpk, 20% HPβCD, pH 5

## CCCNc1nc(NCCC)nc(N(C)OC)n1 [XXXV, N-(4,6-Bis-n-propylamino-[1,3,5]triazin-2-yl)-N,O-dimethyl-hydroxylamine]
[1]; [4]
  MV MPR: 207
  MV ΔMV: 135
[1]; 1 mpk IV, 20% HPβCD, pH 4-5
  MV MPR: 344
  MV ΔMV: 210
[1]; [5]
  MV DMV: 164
  MV MPR: 267

## CCCNc1nc(NCCC)nc(N(C)OC)n1.O=S(=O)(O)O [XXXVI, N-(4,6-Bis-n-propylamino-[1,3,5]triazin-2-yl)-N,O-dimethyl-hydroxylamine hydrogen sulfate]
[2]
  minute ventilation, hypoxic ventilatory response: significantly potentiates the hypoxic ventilatory response
[3]; Rattus norvegicus, iv, read-out: ED50, maximum peak minute ventilation
  ED50: 0.14 mg/kg
[3]; cumulative IV doses, 1.5% isoflurane
  minute ventilation, dose dependence: increased minute ventilation in a dose-dependent manner
Rat KCNK3/TASK-1
  IC50: 25 µM
Human KCNK9/TASK-3
  IC50: > 30 µM

Source: patent US9162992B2, “Compounds and compositions for treatment of breathing control disorders or diseases” (GALLEON PHARMACEUTICALS, INC., priority 2010, dated 2015)
